Experimental findings from article PMC7614683, “A small molecule PI3Kα activator for cardioprotection and neuroregeneration” (Nature, 2023) are described below.

Like-named read-outs stand apart in the source and are kept apart here.

Holding throughout (assay): SelectScreen Z-LYTE kinase activity assay (SI Table 6)
Common to all, as to format: biochemical

The target of test [1] is T1, protein kinases of the Z-LYTE panel (Homo sapiens, UniProt Q12866).
T1 sequence (Q12866 21-999): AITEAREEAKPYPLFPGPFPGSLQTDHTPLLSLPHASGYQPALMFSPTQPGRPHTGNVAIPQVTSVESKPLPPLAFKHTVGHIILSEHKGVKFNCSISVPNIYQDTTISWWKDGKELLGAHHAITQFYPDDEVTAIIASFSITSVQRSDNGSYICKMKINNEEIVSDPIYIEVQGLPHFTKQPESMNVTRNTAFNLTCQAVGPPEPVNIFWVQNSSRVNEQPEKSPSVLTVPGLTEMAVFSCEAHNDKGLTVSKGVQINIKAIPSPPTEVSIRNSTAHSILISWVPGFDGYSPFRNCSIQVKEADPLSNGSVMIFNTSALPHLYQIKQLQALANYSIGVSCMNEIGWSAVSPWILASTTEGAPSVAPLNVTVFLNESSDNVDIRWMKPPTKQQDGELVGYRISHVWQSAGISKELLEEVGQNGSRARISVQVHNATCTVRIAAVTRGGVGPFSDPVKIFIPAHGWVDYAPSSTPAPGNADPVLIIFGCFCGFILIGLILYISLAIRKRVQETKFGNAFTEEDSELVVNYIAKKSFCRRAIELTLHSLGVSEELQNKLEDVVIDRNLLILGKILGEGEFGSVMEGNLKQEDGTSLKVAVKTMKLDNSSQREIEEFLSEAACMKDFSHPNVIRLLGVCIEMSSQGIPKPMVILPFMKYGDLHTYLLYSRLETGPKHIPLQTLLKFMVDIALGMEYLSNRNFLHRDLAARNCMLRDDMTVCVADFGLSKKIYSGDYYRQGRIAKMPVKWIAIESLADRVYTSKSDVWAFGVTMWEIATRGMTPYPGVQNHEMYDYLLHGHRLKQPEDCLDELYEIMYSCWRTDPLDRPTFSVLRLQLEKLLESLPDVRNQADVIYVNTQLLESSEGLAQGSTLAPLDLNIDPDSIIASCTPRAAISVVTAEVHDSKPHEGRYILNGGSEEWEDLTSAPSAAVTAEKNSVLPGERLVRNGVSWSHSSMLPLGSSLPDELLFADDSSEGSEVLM
A digest of the protocol:
(§1)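 Percent effect values derive from SelectScreen Adapta, Lantha and Z-LYTE assays in which 1938 was present at 1 μM, spanning 133 protein kinases and 7 lipid kinases.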

Test [2] has as its target protein kinases of the Z-LYTE panel (Homo sapiens, UniProt P07333). A digest of the protocol: as §1
Test [3] has as its target T2, protein kinases of the Z-LYTE panel (Homo sapiens, UniProt P36888).
T2 sequence (P36888 27-993): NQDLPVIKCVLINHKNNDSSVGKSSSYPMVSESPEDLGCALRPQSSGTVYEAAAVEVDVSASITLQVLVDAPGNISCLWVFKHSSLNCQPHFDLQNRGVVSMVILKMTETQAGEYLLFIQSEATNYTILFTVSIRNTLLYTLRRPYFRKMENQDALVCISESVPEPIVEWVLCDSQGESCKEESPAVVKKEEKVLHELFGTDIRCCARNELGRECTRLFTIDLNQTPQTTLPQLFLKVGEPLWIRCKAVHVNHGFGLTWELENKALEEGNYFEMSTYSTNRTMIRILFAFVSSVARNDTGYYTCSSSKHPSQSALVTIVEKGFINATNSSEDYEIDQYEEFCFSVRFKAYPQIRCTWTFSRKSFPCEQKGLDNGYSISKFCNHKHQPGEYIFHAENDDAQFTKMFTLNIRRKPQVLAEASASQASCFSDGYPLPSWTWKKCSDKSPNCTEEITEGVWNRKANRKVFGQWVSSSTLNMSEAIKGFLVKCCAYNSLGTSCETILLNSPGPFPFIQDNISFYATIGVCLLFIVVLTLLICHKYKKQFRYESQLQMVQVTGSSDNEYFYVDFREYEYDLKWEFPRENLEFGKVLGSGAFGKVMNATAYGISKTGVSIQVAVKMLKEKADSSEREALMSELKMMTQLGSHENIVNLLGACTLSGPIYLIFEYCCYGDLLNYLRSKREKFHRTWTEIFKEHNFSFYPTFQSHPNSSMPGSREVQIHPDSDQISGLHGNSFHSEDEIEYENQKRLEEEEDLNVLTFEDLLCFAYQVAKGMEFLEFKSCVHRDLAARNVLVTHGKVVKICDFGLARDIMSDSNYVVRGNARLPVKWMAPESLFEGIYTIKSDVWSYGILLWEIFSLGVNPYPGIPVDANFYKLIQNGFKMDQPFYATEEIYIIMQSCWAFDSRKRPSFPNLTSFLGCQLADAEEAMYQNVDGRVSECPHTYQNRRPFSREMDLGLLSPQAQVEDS
Put shortly: as §1

protein kinases of the Z-LYTE panel (Homo sapiens, UniProt P07333), sequence (P07333 20-972): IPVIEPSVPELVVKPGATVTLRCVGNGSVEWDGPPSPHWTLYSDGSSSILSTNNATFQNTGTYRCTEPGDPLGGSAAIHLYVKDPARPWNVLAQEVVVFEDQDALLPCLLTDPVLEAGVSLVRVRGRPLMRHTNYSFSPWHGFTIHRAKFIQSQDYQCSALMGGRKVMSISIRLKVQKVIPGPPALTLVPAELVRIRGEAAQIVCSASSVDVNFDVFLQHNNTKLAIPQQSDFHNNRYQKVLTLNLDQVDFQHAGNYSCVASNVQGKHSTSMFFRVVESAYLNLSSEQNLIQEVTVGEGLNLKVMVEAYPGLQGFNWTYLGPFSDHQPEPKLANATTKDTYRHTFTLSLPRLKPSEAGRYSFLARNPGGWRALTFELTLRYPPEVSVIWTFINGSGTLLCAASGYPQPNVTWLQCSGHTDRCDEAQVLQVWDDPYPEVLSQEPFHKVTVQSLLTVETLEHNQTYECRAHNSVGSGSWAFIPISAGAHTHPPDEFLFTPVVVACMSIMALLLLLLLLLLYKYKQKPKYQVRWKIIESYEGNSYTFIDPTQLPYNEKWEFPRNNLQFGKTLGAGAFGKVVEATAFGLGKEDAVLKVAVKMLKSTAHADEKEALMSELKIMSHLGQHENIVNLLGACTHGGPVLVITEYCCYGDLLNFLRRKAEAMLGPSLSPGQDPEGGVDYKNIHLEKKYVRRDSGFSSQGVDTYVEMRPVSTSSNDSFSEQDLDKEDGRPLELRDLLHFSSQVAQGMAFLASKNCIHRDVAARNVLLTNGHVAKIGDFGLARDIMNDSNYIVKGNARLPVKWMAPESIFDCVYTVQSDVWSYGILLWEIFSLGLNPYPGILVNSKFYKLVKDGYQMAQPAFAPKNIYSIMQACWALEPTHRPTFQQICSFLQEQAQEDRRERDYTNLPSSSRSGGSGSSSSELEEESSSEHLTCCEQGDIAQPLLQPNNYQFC

A word on the inhibition: it is how much of the control response was suppressed. For `CCN1CCN(c2ccc(Nc3cc(Nc4cccc5c4N(C(C)=O)CC5)ccn3)cc2)CC1` [Compound 1938], the inhibition at 1 µM in test [1] (read-out: % Inhibition Point 1) stood at 12%; in test [1] (read-out: % Inhibition Point 2), 9%; in test [1] (read-out: % Inhibition mean) it was 11%; in test [2] (read-out: % Inhibition Point 1), 15%; in test [2] (read-out: % Inhibition Point 2) it was 15%; in test [2] (read-out: % Inhibition mean) it was 15%. Besides, the inhibition at 1 µM in test [3] (read-out: % Inhibition Point 1) was 19%; in test [3] (read-out: % Inhibition Point 2), 20%; in test [3] (read-out: % Inhibition mean) it was 19%.
